pIC50: −log10 of the molar value.
System: 519858-162-T-J1-PDC complex spheroid growth, % test/control
Assay: Anticancer human tumor 519858-162-T-J1-PDC patient-derived colon adenocarcinoma cell line growth inhibition [Asc]
Details: for pIC50: curve of first compound; for viability, T/C: stronger effect = lower value
Protocol: Multicellular complex tumor spheroid response to apoptosis pathway targeting inhibitors Alrizomadlin, Pelcitoclax, and Dasminapant in combination with a variety of drugs and investigational agents in selected tumor cell lines
The MDM2 inhibitor alrizomadlin, the Bcl-2/Bcl-xL inhibitor pelcitoclax, and the IAPs inhibitor dasminapant were evaluated both individually and in combination with standard of care and investigational anticancer small molecules within a complex spheroid model of solid tumors. . Complex spheroids include a stromal component modeled by human endothelial cells (HUVEC) and fibroblasts modeled by human mesenchymal stem cells (MSCs). The concentration ranges selected for each drug and investigational agent were based upon clinically achievable concentrations if the clinical Cmax of the agent was known.
Compounds. The drugs and investigational agents: alrizomadlin (APG-115; NSC831270), pelcitoclax (APG-1252; NSC835773), dasminapant (APG-1387;NSC834197), TAK-243 (NSC785004), copanlisib (NSC809693), olaparib (NSC753686), talazoparib (NSC767125), cobimetinib (NSC 768068), eltanexor (KPT-8602, NSC 794443), abemaciclib (NSC 768073), sotorasib (NSC818433), adagrasib (NSC 831453), MRTX-1133 (NSC 836407), Iadademestat (ORY1001, NSC 806812), and RMC-4630 (NSC839698), were obtained from the NCI Developmental Therapeutics Program Chemical Repository. The FDA-approved anticancer drug set is available from the Developmental Therapeutics Program at https://dtp.cancer.gov/organization/dscb/obtaining/available plates.htm. […] The stock solutions were prepared in dimethyl sulfoxide (DMSO, Sigma-Aldrich, St. Louis, MO, cat. D2650) at 800-fold the tested concentration and stored at -70 degrees C prior to their use. All drugs and investigational agents were tested over a range starting from a high concentration at or near the clinical Cmax and decreasing in half-log increments. If the clinical Cmax for an agent had not been determined, the highest concentration tested was 10 microM.
The patient-derived cancer (PDC) cell lines include five colon adenocarcinomas: 186277-243-T-J2-PDC, 616215-338-R-J1-PDC, 439559-082-T-J2-PDC, 463943-066-T-J2-PDC, and 519858-162-T-J1-PDC; three pancreatic carcinomas: 323965-272-R-J2-PDC, 521955-158-R6-J3-PDC, and 521955-158-R2-J5-PDC; two uterine sarcomas: 327498-152-R-J2-PDC and 993429-296-R-J1-PDC; two rhabdomyosarcomas: 755483-174-R-J1-PDC and 772245-204-R-J1-PDC; two soft tissue sarcomas: 126254-015-R-J1-PDC and 494315-158-R-J1-PDC; two malignant fibrous histiocytomas: 317291-083-R-J1-PDC and 596521-263-R-J1-PDC; two breast carcinomas: 171881-019-R-J1-PDC and 885512-296-R-J2-PDC; and one ovarian carcinoma: 6556581-035-R-J-PDC were obtained from the NCI PDMR, (https://pdmr.cancer.gov). The established cell lines HSSY-2 synovial sarcoma (RRID:CVCL 8719), SYO-1 synovial sarcoma (RRID:CVCL_7146), MPNST malignant peripheral neural sheath tumor were obtained from the Sloan Kettering Institute. The following established cell lines were purchased from the American Type Culture Collection (ATCC, Manassas, VA), Sor the received from the NCI repository:, PANC-1 pancreatic carcinoma (CRL-1469, RRID:CVCL_0480), OVCAR-5 ovarian carcinoma (RRID:CVCL_1628), OVCAR-8 ovarian carcinoma (RRID:CVCL_1629), , MCF-7 breast carcinoma (CRL-12584, RRID:CVCL_0031), MDA-MB-231 breast carcinoma (CRL-12532, RRID:CVCL_0062), NCI-H1876 small cell lung carcinoma (CRL-5902, RRID:CVCL_1503), NCI-H510A small cell lung carcinoma (HTB-184, RRID:CVCL_1565), NCI-H1417 (CRL-5869, RRID:CVCL_1469), and NCI-H196 small cell lung carcinoma (CRL-5823, RRID:CVCL_1509). Dr. Peter Houghton (Greehey Children's Cancer Research Institute, University of Texas Health Science Center, San Antonio, TX) provided Rh-18 rhabdomyosarcoma (RRID:CVCL_1659). Pooled donor human umbilical vein endothelial cells (HUVEC, Lonza, cat. CC-2519) and human mesenchymal stem cells (hMSC, Lonza, cat. PT-2501) were purchased from Lonza (Walkersville, MD).
Cell Culture. […]

[1] = second compound 0.00949 µM, first compound 0.0316 µM
[2] = second compound 0.00949 µM, first compound 0.1 µM
[3] = second compound 0.03 µM, first compound 0.0316 µM
[4] = second compound 0.03 µM, first compound 0.1 µM
[5] = second compound 0.0949 µM, first compound 0.0316 µM
[6] = second compound 0.0949 µM, first compound 0.1 µM
[7] = second compound 0.3 µM, first compound 0.0316 µM
[8] = second compound 0.3 µM, first compound 0.1 µM
[9] = second compound 0.949 µM, first compound 0.0316 µM
[10] = second compound 0.949 µM, first compound 0.1 µM
[11] = second compound 3 µM, first compound 0.0316 µM
[12] = second compound 3 µM, first compound 0.1 µM
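Note: seven day drug exposure begun three days after spheroid seeding.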
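Throughout, for viability, T/C: 100% = DMSO vehicle wells and lower values mean less viable spheroid.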

SMILES: Cn1ncnc1[C@H]1c2n[nH]c(=O)c3cc(F)cc(c23)N[C@@H]1c1ccc(F)cc1 + CCN1C(C(=O)NC23CCC(C(=O)O)(CC2)CC3)C(c2cccc(Cl)c2F)C2(C(=O)Nc3cc(Cl)ccc32)C12CCCCC2
- pIC50 (second compound 0.00949 µM): < 7.00
- pIC50 (second compound 0.03 µM): < 7.00
- pIC50 (second compound 0.0949 µM): < 7.00
- pIC50 (second compound 0.3 µM): < 7.00
- pIC50 (second compound 0.949 µM): < 7.00
- pIC50 (second compound 3 µM): < 7.00
- viability, T/C (second compound 0.00949 µM, first compound 0.000316 µM): 87%
- viability, T/C (second compound 0.00949 µM, first compound 0.001 µM): 86.3%
- viability, T/C (second compound 0.00949 µM, first compound 0.00316 µM): 103%
- viability, T/C (second compound 0.00949 µM, first compound 0.01 µM): 103%
- viability, T/C [1]: 84.8%
- viability, T/C [2]: 98.1%
- viability, T/C (second compound 0.03 µM, first compound 0.000316 µM): 119%
- viability, T/C (second compound 0.03 µM, first compound 0.001 µM): 82.3%
- viability, T/C (second compound 0.03 µM, first compound 0.00316 µM): 72%
- viability, T/C (second compound 0.03 µM, first compound 0.01 µM): 91.5%
- viability, T/C [3]: 74.6%
- viability, T/C [4]: 65.5%
- viability, T/C (second compound 0.0949 µM, first compound 0.000316 µM): 137%
- viability, T/C (second compound 0.0949 µM, first compound 0.001 µM): 56.1%
- viability, T/C (second compound 0.0949 µM, first compound 0.00316 µM): 105%
- viability, T/C (second compound 0.0949 µM, first compound 0.01 µM): 82.4%
- viability, T/C [5]: 90.6%
- viability, T/C [6]: 87.5%
- viability, T/C (second compound 0.3 µM, first compound 0.000316 µM): 103%
- viability, T/C (second compound 0.3 µM, first compound 0.001 µM): 90.7%
- viability, T/C (second compound 0.3 µM, first compound 0.00316 µM): 93.7%
- viability, T/C (second compound 0.3 µM, first compound 0.01 µM): 97.3%
- viability, T/C [7]: 75.4%
- viability, T/C [8]: 91.1%
- viability, T/C (second compound 0.949 µM, first compound 0.000316 µM): 75.2%
- viability, T/C (second compound 0.949 µM, first compound 0.001 µM): 92.3%
- viability, T/C (second compound 0.949 µM, first compound 0.00316 µM): 108%
- viability, T/C (second compound 0.949 µM, first compound 0.01 µM): 72.3%
- viability, T/C [9]: 91.9%
- viability, T/C [10]: 95.8%
- viability, T/C (second compound 3 µM, first compound 0.000316 µM): 70.2%
- viability, T/C (second compound 3 µM, first compound 0.001 µM): 68.8%
- viability, T/C (second compound 3 µM, first compound 0.00316 µM): 68.3%
- viability, T/C (second compound 3 µM, first compound 0.01 µM): 74.2%
- viability, T/C [11]: 107%
- viability, T/C [12]: 85.1%

SMILES: O=C(c1cc(Cc2n[nH]c(=O)c3ccccc23)ccc1F)N1CCN(C(=O)C2CC2)CC1 + CCN1C(C(=O)NC23CCC(C(=O)O)(CC2)CC3)C(c2cccc(Cl)c2F)C2(C(=O)Nc3cc(Cl)ccc32)C12CCCCC2
- pIC50 (second compound 0.00949 µM): < 5.00
- pIC50 (second compound 0.03 µM): < 5.00
- pIC50 (second compound 0.0949 µM): < 5.00
- pIC50 (second compound 0.3 µM): < 5.00
- pIC50 (second compound 0.949 µM): < 5.00
- pIC50 (second compound 3 µM): < 5.00
- viability, T/C [1]: 106%
- viability, T/C [2]: 81.9%
- viability, T/C (second compound 0.00949 µM, first compound 0.316 µM): 101%
- viability, T/C (second compound 0.00949 µM, first compound 1 µM): 81%
- viability, T/C (second compound 0.00949 µM, first compound 3.16 µM): 90.8%
- viability, T/C (second compound 0.00949 µM, first compound 10 µM): 79.4%
- viability, T/C [3]: 130%
- viability, T/C [4]: 82.9%
- viability, T/C (second compound 0.03 µM, first compound 0.316 µM): 127%
- viability, T/C (second compound 0.03 µM, first compound 1 µM): 93.2%
- viability, T/C (second compound 0.03 µM, first compound 3.16 µM): 75.2%
- viability, T/C (second compound 0.03 µM, first compound 10 µM): 74.9%
- viability, T/C [5]: 117%
- viability, T/C [6]: 103%
- viability, T/C (second compound 0.0949 µM, first compound 0.316 µM): 101%
- viability, T/C (second compound 0.0949 µM, first compound 1 µM): 77%
- viability, T/C (second compound 0.0949 µM, first compound 3.16 µM): 92.7%
- viability, T/C (second compound 0.0949 µM, first compound 10 µM): 100%
- viability, T/C [7]: 163%
- viability, T/C [8]: 94.9%
- viability, T/C (second compound 0.3 µM, first compound 0.316 µM): 99.2%
- viability, T/C (second compound 0.3 µM, first compound 1 µM): 83.3%
- viability, T/C (second compound 0.3 µM, first compound 3.16 µM): 85.2%
- viability, T/C (second compound 0.3 µM, first compound 10 µM): 72.2%
- viability, T/C [9]: 71.9%
- viability, T/C [10]: 70.6%
- viability, T/C (second compound 0.949 µM, first compound 0.316 µM): 76.5%
- viability, T/C (second compound 0.949 µM, first compound 1 µM): 86.5%
- viability, T/C (second compound 0.949 µM, first compound 3.16 µM): 85.2%
- viability, T/C (second compound 0.949 µM, first compound 10 µM): 94%
- viability, T/C [11]: 63.8%
- viability, T/C [12]: 89.3%
- viability, T/C (second compound 3 µM, first compound 0.316 µM): 94.7%
- viability, T/C (second compound 3 µM, first compound 1 µM): 73.4%
- viability, T/C (second compound 3 µM, first compound 3.16 µM): 100%
- viability, T/C (second compound 3 µM, first compound 10 µM): 76%

From PubChem BioAssay AID1963421 (Molecular Pharmacology Branch, DTP, NCI, 2024)
